Assay results: US12023319B2, “Carboxylic acid aromatic amides” (priority 2016, dated 2024)

Columns and labels:
Assay type in all cases: cell-based
[1] = tested on: Bradykinin B1 agonist-induced secretion of IL-6; assay: Bradykinin B1 agonist-induced secretion of IL-6 in human IMR-90 cells; conditions: 30 min compound, then 0.1 μM Lys-[Des-Arg9]Bradykinin and 0.1 μM Sar-[D-Phe8]-des-Arg9-Bradykinin for 5 hours
Description: (§1) 2. Inhibitory Activity on Bradykinin B1 Agonist-Induced Secretion of IL-6 and IL-8 in Human IMR-90 Cells
(§2) The effect of the Compound Examples on secretion of the cytokine IL-6 and IL-8 has been investigated in the human foetal lung fibroblast IMR-90 cell line. Here the induction of the cytokine secretion was induced by the Bradykinin B1 agonists Lys-[Des-Arg9]Bradykinin (CAS 71800-36-7, Tocris Bioscience) and Sar-[D-Phe8]-des-Arg9-Bradykinin (CAS 126959-88-4, Tocris Bioscience) leading to the activation of the Bradykinin B1-driven signalling pathway. The inhibitory activity of the tested Compound Examples on Bradykinin B1 agonist-induced secretion of IL-6 and IL-8 is indicative for the compounds' prominent anti-inflammatory mode of action in kinin driven inflammation.
(§3) IMR-90 cells were cultured in Eagle's Minimum Essential Medium (EMEM) containing 2 mM L-glutamine, 1 g/L glucose, 1.5 g/L NaHCO3, 1 mM sodium pyruvate and non-essential amino acids (ATCC, 30-2003™) supplemented with 10% FBS (Biochrom, S0615) and 50 U/mL Penicillin, 50 μg/mL Streptomycin (PAA, P11-010). The assay was performed in EMEM and a cell density of […] IMR-90 cells/96-well. The Compound Examples have been serial diluted in 100% DMSO and evaluated at 8 different concentrations within the range of 3 nM and 10 μM and a final DMSO concentration of 0.4%. The IMR-90 cells have been incubated with the respective concentration of the compound for 30 min. The enhanced secretion of IL-6 and IL-8 was induced by the stimulation of these cells with 0.1 μM Lys-[Des-Arg9]Bradykinin (Tocris, catalogue no. 3225) and 0.1 μM Sar-[D-Phe8]-des-Arg9-Bradykinin (Tocris, catalogue no. 3230) for 5 hours at 37° C. and 5% CO2. Further, cells have been treated with Lys-[Des-Arg9]Bradykinin and Sar[D-Phe8]-des-Arg9-Bradykinin as neutral control and with 0.1% DMSO as inhibitor control. The amount of IL-6 and IL-8 in the supernatant was determined using the Human ProInflammatory Panel II (4-Plex) (MSD, K15025B) according to manufacturer's instruction. Briefly, supernatants were added onto assay plates and incubated at room temperature for 1-2 h with vigorous shaking at 600 rpm. Detection antibodies were then added onto the supernatants and incubated at room temperature for an additional 1-2 h with vigorous shaking at 600 rpm. Plates were washed three times with phosphate-buffered saline (PBS; 137 mM NaCl, 2.7 mM KC1, 6.5 mM Na2HP04, 1.7 mM KH2P04) containing 0.05% Tween-20 (Bio-Rad, 161-0781) and electrochemiluminescence detected using the MSD Sector Imager 6000 plate reader. The cell viability was measured using the CellTiter-Glo Luminescent Assay (Promega, G7571) following the manufacturers protocol. Briefly, the CellTiter-Glo Reagent was diluted with PBS (1:1) and added directly to cells. After incubation and shaking for 10 minutes luminescent signal was measured which is proportional to the amount of ATP present.
(§4) The effect of the compound on the amount of secreted cytokine has been calculated as 100/(measured cytokine concentration of neutral control-measured cytokine concentration of inhibitor control)*(measured cytokine concentration of compound dose-measured cytokine concentration of inhibitor control). IC50 values are determined using 4-parameter-fit.
(§5) The Compound Examples were tested in triplicates per plate and the inhibitory activity was determined as the relation between neutral and inhibitor control in percent. IC50 values were calculated using the 4-parameter logistic model.

[2] = tested on: Bradykinin B1 agonist-induced secretion of IL-8; assay: Bradykinin B1 agonist-induced secretion of IL-8 in human IMR-90 cells; conditions: 30 min compound, then 0.1 μM Lys-[Des-Arg9]Bradykinin and 0.1 μM Sar-[D-Phe8]-des-Arg9-Bradykinin for 5 hours
Description: as §1, §2, §3, §4, §5

[3] = molecular target: T1, native human Bradykinin B1 receptor (Homo sapiens, UniProt P46663); assay: Calcium flux assay (FLIPR) with IMR-90 human fibroblasts expressing Bradykinin B1 receptor after IL-1beta induction (hB1 IMR-90); conditions: IMR-90 human fibroblasts after IL-1beta induction, read-out: hB1 IMR90 IC50
T1 construct: which express native human Bradykinin B1 receptor after induction with human IL-1beta; Coriell Institute; host or cells: IMR-90 human foetal lung fibroblasts, induced with human IL-1beta
T1 sequence (P46663 1-353): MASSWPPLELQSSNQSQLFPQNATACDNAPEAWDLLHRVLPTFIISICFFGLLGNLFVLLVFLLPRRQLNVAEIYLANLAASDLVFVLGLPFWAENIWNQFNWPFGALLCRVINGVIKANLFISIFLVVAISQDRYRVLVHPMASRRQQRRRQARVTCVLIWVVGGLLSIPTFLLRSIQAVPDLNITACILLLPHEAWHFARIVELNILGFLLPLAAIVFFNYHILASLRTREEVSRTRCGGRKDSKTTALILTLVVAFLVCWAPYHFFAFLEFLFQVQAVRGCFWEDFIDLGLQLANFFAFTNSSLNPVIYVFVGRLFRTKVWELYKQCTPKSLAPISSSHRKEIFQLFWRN
Summary of the method: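 IMR-90 foetal lung fibroblasts induced with 0.35 ng/mL IL-1beta for 3 h to express native B1 receptor, then loaded with 2.5 μM Fluo-4/AM plus 2.5 mM probenecid for 2 h at 37 °C. Calcium flux read by FLIPR; compounds at 8 concentrations in triplicate, full inhibition defined by 20 μM Lys-(Des-Arg-Leu)-Bradykinin; IC50 derived.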

SMILES	IC50 [1] [nM]	IC50 [2] [nM]	IC50 [3] [nM]
O=C(O)c1cc(NC(=O)C2(c3ccc(C(F)(F)F)cc3F)CC2)ccc1-c1cc2ccccc2s1 [Example 1, 2-(1-Benzothiophen-2-yl)-5-[({1-[2-fluoro-4-(trifluoromethyl)phenyl]cyclopropyl}carbonyl)amino]benzoic acid]	149	245	72
CCC(F)(F)c1ccc(-c2ccc(NC(=O)C3(c4ccc(C(F)(F)F)cc4F)CC3)cc2C(=O)O)cn1 [Example 2, 2-[6-(1,1-Difluoropropyl)pyridin-3-yl]-5-[({1-[2-fluoro-4-(trifluoromethyl)-phenyl]cyclopropyl}carbonyl)amino]benzoic acid]	113	303	44
O=C(O)c1cc(NC(=O)C2(c3ccc(C(F)(F)F)cc3F)CC2)ccc1-c1cnn(C2CCC2)c1 [Example 3, 2-(1-Cyclobutyl-1H-pyrazol-4-yl)-5-[({1-[2-fluoro-4-(trifluoromethyl)phenyl]cyclopropyl}carbonyl)amino]benzoic acid]	47	53	12
O=C(O)c1cc(NC(=O)C2(c3ccc(OC(F)(F)F)cc3F)CC2)ccc1-c1ccc(C(F)F)nc1 [Example 5, 2-[6-(Difluoromethyl)pyridin-3-yl]-5-[({1-[2-fluoro-4-(trifluoromethoxy)phenyl]cyclopropyl}carbonyl)amino]benzoic acid]	290	483	2700
O=C(O)c1cc(NC(=O)C2(c3ccc(C(F)(F)F)cc3F)CC2)ccc1-c1ccc(C(F)(F)F)nc1 [Example 6, 5-[({1-[2-Fluoro-4-(trifluoromethyl)phenyl]cyclopropyl}carbonyl)amino]-2-[6-(trifluoromethyl)pyridin-3-yl]benzoic acid]	443	205	550
O=C(O)c1cc(NC(=O)C2(c3ccc(C(F)(F)F)cc3F)CC2)cc(F)c1-c1ccc(C(F)(F)F)nc1 [Example 29, 3-Fluoro-5-[({1-[2-fluoro-4-(trifluoromethyl)phenyl]cyclopropyl}carbonyl)amino]-2-[6-(trifluoromethyl)pyridin-3-yl]benzoic acid]	600	489	21
O=C(O)c1cc(NC(=O)C2(c3ccc(C(F)(F)F)cc3F)CC2)cc(F)c1-c1cnn(C2CCC2)c1 [Example 42, 2-(1-Cyclobutyl-1H-pyrazol-4-yl)-3-fluoro-5-[({1-[2-fluoro-4-(trifluoromethyl)phenyl]cyclopropyl}carbonyl)amino]benzoic acid]	70	85	4.1
